From patent US9333264B2, “Biocompatible polymeric nanoparticles degrade and release cargo in response to biologically relevant levels of hydrogen peroxide” (The Regents of the University of California, priority 2013, dated 2016)

Assays:
dMPRO cells = test: Extracellular hydrogen peroxide produced by neutrophils; type: cell-based, mouse; details: 1.6×10^6 dMPRO cells, after 6 h of PMA treatment
Protocol: Activated neutrophils generate high ROS. Extracellular hydrogen peroxide produced by neutrophils (differentiated mouse promyleocytes or dMPRO cells) with and without PMA (phorbol 12 myristate 13 acetate) stimulation was measured.
After 6 h of PMA treatment, 1.6×10^6 dMPRO cells produced 6.5 μM H2O2, while untreated cells produced 4.5 μM H2O2. These extracellular levels of H2O2 were much lower than the levels previously seen for Polymer 2, however the concentration of H2O2 inside neutrophil granules appear to be much higher. Fluorescein diacetate (FDA), a non-fluorescent molecule which is cleaved to fluorescein (Ex490/Em520) by cellular esterases, was chosen for the release assay.

[1] = cited from earlier work
[2] = Effect of H2O2 on the fluorescence of Nile red; type: physicochemical; details: 72 h incubation with 1 mM hydrogen peroxide
Protocol: The fluorescence of the dye was quenched in aqueous environments, enabling use as a model compound to indicate small molecule release from the hydrophobic nanoparticle interior. Prior to the evaluation of controlled release from our materials, the stability of Nile Red fluorescence in hydrogen peroxide was tested to ensure that the fluorescence quenching observed is not a result of Nile Red exposure to hydrogen peroxide.
Nile red solutions of three different concentrations in acetone were prepared (10, 40, 160 ng/mL). Polymer 1 was dissolved in the Nile red solutions (polymer concentration in all Nile red solutions were constant at 125 μg/mL). Hydrogen peroxide was added to these solutions (concentration in Nile red solutions was constant at 1 mM). Changes in Nile red fluorescence were monitored over a 72 h period using the same instrument settings as reported previously. These experiments were run in duplicate.

Raw264.7 macrophages = test: ApoTox-Glo assay of viability, cytotoxicity and apoptosis; details: staurosporine 5 μM for 5 h; Triton X-100 0.1% for 15 min
Protocol: In addition, this assay also measures caspase 3/7 activity as a readout for apoptosis (see, FIGS. 7A-7D). […] Staurosporine and 0.1% Triton-X 100 were used as positive controls for induction of apoptosis and cell death, respectively.
Raw264.7 cells were seeded on a 96-well plate at a density of 15000 cells per well. […] The particles were incubated for 5, 24 and 48 h.
Apoptosis (positive control) was induced by addition of staurosporine (5 μM final concentration), followed by incubation for at 37° C. for 5 h. Cytotoxicity (positive control) was induced by addition of triton X-100 (0.1% final concentration), followed by incubation at 37° C. for 15 min. Viability, cytotoxicity and apoptosis were measured using ApoTox-Glo™ assay (Promega) as per manufacturer's protocol. Datasets for each concentration and controls were collected in quadruplicates.

CCCCCCCCCCCCCC(=O)O[C@@H]1[C@@H](C)[C@@]2(O)[C@@H](C=C(CO)C[C@]3(O)C(=O)C(C)=C[C@@H]23)[C@@H]2C(C)(C)[C@]12OC(C)=O [PMA, phorbol 12 myristate 13 acetate]
extracellular H2O2 produced (dMPRO cells): 6.5 µM

CCN(CC)c1ccc2nc3c4ccccc4c(=O)cc-3oc2c1 [Nile red]
solubility in aqueous media [1]: < 1 µg/mL | change of Nile Red fluorescence [2]: did not change significantly

Triton X-100
apoptosis and cell viability, positive controls (Raw264.7 macrophages): apoptosis and loss of cell viability was observed

CN[C@@H]1C[C@H]2O[C@@](C)([C@@H]1OC)n1c3ccccc3c3c4c(c5c6ccccc6n2c5c31)C(=O)NC4 [staurosporine]
apoptosis and cell viability, positive controls (Raw264.7 macrophages): apoptosis and loss of cell viability was observed
